We go through 1 compound from publication PMC8280112, “Substrate reduction therapy for Krabbe disease and metachromatic leukodystrophy using a novel ceramide galactosyltransferase inhibitor” (Scientific Reports, 2021).

A word on the IC50: it is the concentration that inhibits the measured activity by half. A high value points to weaker potency.

The target in this experiment is T1, Human CGT (Homo sapiens, UniProt Q16880).
T1 construct: made in house; host or cells: CHO cells expressing UGT8; crude M-PER lysate
T1 sequence (Q16880 21-541): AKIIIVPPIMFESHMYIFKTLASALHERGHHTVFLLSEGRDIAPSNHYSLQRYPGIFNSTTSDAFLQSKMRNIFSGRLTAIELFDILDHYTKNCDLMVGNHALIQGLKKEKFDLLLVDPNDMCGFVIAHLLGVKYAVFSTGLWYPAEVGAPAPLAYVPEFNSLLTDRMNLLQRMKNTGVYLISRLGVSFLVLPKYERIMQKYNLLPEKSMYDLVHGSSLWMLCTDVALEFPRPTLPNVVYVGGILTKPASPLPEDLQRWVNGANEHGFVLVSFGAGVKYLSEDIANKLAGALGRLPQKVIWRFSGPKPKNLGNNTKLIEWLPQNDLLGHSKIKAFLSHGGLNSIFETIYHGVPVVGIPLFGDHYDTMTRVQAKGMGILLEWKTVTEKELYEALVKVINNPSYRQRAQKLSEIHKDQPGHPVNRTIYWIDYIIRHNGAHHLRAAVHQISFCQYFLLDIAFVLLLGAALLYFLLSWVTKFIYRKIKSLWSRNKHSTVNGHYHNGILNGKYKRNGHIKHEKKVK
The experiment can be described thus: CGT enzyme assay (cell-lysate assay). Particulars: lysate of CHO cells expressing human UGT8. The class given is biochemical. Here is the method: Human CGT was obtained from a cell lysate from CHO cells expressing UGT8 (made by BioMarin) prepared in M-PER with proteinase inhibitors (Sigma). Compounds, serially diluted in DMSO and Tween 80, were added to 4 µg/well of CHO/CGT cell lysate to make 20 µL final reaction volume containing 0.5% DMSO and 0.01% Tween 80 in the reaction buffer consisting of 10 µM NDB-(2R-OH)-C6 ceramide (made by BioMarin), 17.5 µM UDP-Galactose (Sigma), 35 µM of dioleoylphosphatidylcholine (DOPC), 5 mM MgCl2, 5 mM MnCl2, 1% BSA, 15 mM KCl, 1 mM EGTA, 8 mM CHAPS, 10 mM HEPES–NaOH pH 7.2. The reaction was incubated at 37 °C for 1 h and stopped by adding 80 µL of methanol:acetonitrile (1:3) with 5 µM N-dodecanoyl-NBD-galactosylceramide (Matreya) internal standard (IS) for 30 min. 200 µL H2O:ACN (1:1) was added for 5 min and then centrifuged at 4000 rpm for 38 min at RT before quantifying NDB-(2R-OH)-C6-galactosylceramide (BioMarin) by LC–MS on a Rapid Fire 360 mass spectrometer (Agilent) coupled with a API4000 + MS in electrospray ionization (ESI) negative mode (Applied Biosystems). These assay conditions were used to screen the Bio-active lipid library (Cayman Cat# 10506).

As to `O=C1N(c2ccc(Br)cc2)C(=O)C(O)(c2ccccc2)N1c1ccc(Br)cc1` (stereo not shown) [S221], the IC50 worked out at 23 µM.
